Here are results for nine compounds from US5218114A, “Cholecystokinin antagonists” (Merck & Co., Inc., priority 1992, dated 1993).

One assay has as its system CCK-B receptors. To be noted: Bock et al., J. Med. Chem., 32, 13-16 (1989); cited from earlier work.
The test system of the next assay is CCK receptor. The note with it: literature; cited from earlier work.
The target in a further assay is T1, CCK receptor (pancreas) (Rattus norvegicus, UniProt P30551).
T1 construct: The whole pancreas was dissected free of fat tissue and was homogenized; from tissue; host or cells: rat whole pancreas, homogenate membranes
T1 sequence (P30551 1-444): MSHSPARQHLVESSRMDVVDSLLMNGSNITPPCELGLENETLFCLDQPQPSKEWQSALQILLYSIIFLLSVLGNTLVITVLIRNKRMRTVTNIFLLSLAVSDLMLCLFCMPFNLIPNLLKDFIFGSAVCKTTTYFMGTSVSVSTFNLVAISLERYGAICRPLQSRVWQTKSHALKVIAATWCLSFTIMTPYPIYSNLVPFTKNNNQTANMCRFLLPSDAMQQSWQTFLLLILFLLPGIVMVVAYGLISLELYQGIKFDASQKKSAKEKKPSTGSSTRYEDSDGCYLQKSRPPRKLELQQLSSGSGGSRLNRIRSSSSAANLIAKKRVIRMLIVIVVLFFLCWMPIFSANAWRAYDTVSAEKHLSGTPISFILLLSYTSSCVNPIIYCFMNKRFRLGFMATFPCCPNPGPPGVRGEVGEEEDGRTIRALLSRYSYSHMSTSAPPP
As to the kind of experiment: CCK Receptor Binding (Pancreas). Further details: species or system rat (male Sprague-Dawley). As to the method:
1. CCK Receptor Binding (Pancreas)
CCK-8 sulphated was radiolabelled with ^125 I-Bolton Hunter reagent (2000 Ci/mmole). Receptor binding was performed according to Chang and Lotti (Proc. Natl. Acad. Sci. 83, 4923-4926, 1986) with minor modifications.
Male Sprague-Dawley rats (150-200 g) were sacrificed by decapitation. The whole pancreas was dissected free of fat tissue and was homogenized in 25 volumes of ice-cold 10 mM Hepes buffer with 0.1% soya bean trypsin inhibitor (pH 7.4 at 25° C.) with a Kinematica Polytron. The homogenates were centrifuged at 47,800 g for 10 min. Pellets were resuspended in 10 volumes of binding assay buffer (20 mM Hepes, 1 mM EGTA, 5 mM MgCl2, 150 mM NaCl, bacitracin 0.25 mg/ml, soya bean trypsin inhibitor 0.1 mg/ml, and bovine serum albumin 2 mg/ml, pH 6.5 at 25° C.) using a teflon homogenizer, 15 strokes at 500 rpm. The homogenate was further diluted in binding assay buffer to give a final concentration of 0.5 mg original wet weight/1 ml buffer. […] All assays were run in duplicate. The reaction mixtures were incubated at 25° C. for 2 hours and the reaction terminated by rapid filtration (Brandell 24 well cell harvester) over Whatman GF/C filters, washing 3×4 mls with ice-cold 100 mM NaCl. The radioactivity on the filters was counted with a LKB gamma counter.
(§1) Drug displacement studies were performed with at least 10 concentrations of compounds of formula 1 and the IC50 values were determined by regression analysis.

The target of assay [1] is T2, CCK receptor (brain, cortex) (Cavia porcellus, UniProt H0VZC5).
T2 construct: the cortex was removed and homogenized in 25 mL ice-cold 0.32M sucrose; from tissue; host or cells: guinea pig brain cortex, P2 membranes
T2 sequence (H0VZC5 1-426): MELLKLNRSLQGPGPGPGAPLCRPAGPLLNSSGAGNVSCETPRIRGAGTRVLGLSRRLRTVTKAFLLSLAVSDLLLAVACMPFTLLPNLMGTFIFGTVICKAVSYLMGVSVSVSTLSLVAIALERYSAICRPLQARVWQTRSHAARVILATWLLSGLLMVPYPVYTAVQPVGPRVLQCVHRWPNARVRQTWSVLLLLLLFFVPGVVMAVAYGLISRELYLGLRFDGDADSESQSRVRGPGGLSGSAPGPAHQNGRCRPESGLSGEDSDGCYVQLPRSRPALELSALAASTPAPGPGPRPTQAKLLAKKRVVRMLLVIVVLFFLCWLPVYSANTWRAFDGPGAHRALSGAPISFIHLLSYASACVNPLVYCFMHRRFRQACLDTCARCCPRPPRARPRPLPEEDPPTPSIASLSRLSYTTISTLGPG
As to the kind of experiment: CCK Receptor Binding (Brain). Further details: species or system guinea pig (male Hartley). As to the method:
2. CCK Receptor Binding (Brain)
CCK-8 sulphated was radiolabelled and the binding was performed according to the description for the pancreas method with minor modifications.
Male Hartley guinea pigs (300-500 g) were sacrificed by decapitation and the cortex was removed and homogenized in 25 mL ice-cold 0.32M sucrose. The homogenates were centrifuged at 1000 g for 10 minutes and the resulting supernatant was recentrifuged at 20,000 g for 20 minutes. […] All assays were run in duplicate. The reaction mixtures were incubated at 25° C. for 2 hours and then the reaction was terminated on Whatman GF/C filters by rapid filtration (Brandell 24 well cell Harvester) with 3×5 ml washes of cold 100 mM NaCl. The radioactivity on the filters was then counted with a LKB gamma counter.
as §1

For the next assay, the system named is gastrin. The note with it: J. Martinez, J. Med. Chem. 27, 1597 (1984); cited from earlier work.
Setting [2] is: 125I-CCK-8 50 pM, guinea pig cortex, 25° C., 2 hours, read-out: CCK RECEPTOR BINDING RESULTS IC50, 125I-CCK Brain.
[3] abbreviates: 125I-CCK-8 50 pM, rat pancreas, 25° C., 2 hours, read-out: CCK RECEPTOR BINDING RESULTS IC50, 125I-CCK Pancreas.

Molecules are shown by their SMILES. Like-named read-outs stand apart in the source and are kept apart here. Square brackets hold non-standard residues; d marks the D form. Peptide text beside a SMILES is read from it. * marks the point of attachment. sY = N[C@@H](Cc1ccc(OS(=O)(=O)O)cc1)C(=O)O; Cbz = O=C(OCc1ccccc1)* Bounds are passed on as bounds.

For `Cc1cccc(NC(=O)N[C@@H]2N=C(c3ccccc3)c3ccccc3N(C)C2=O)c1` [(R)-N-(2,3-dihydro-1-methyl-2-oxo-5-phenyl-1H-1,4-benzodiazepin-3-yl)-N^1-(3-methylphenyl) urea], in the assay on CCK-B receptors, the “antagonist of CCK-B receptors” value is “potent and selective antagonist of CCK-B receptors”.

As for `CSCC[C@H](NC(=O)[C@H](Cc1ccc(OS(=O)(=O)O)cc1)NC(=O)OCc1ccccc1)C(=O)NCC(=O)N[C@@H](Cc1c[nH]c2ccccc12)C(=O)N[C@@H](CCSC)C(=O)N[C@@H](CC(=O)O)C(N)=O` [Cbz--Tyr(SO3 H)--Met--Gly--Trp--Met--Asp--NH2] (Cbz-[sY]MGWMD-NH2), in the assay with CCK receptor, the “CCK-receptor antagonist potency / agonism” value was “partial agonist”.

Consider `O=C(Nc1ccc(Cl)cc1)NC1N=C(c2ccccc2)c2ccccc2N(Cc2nnn[nH]2)C1=O` (centres unmarked) [Example 1, N-{1,3-Dihydro-1-[1H-tetrazol-5yl]methyl-2-oxo-5-phenyl-1H-1,4-benzodiazepin-3-yl}-N'-{[4-chlorophenyl]-urea}], for which the IC50 (commonly the midpoint of a concentration-inhibition curve) at CCK receptor (pancreas) worked out at 2130 nM; in assay [1] (setting [2]) it was 494 nM.

For `O=C(Nc1ccc(Cl)cc1)NC1N=C(c2ccccc2)c2ccccc2N(CC(O)CN2CCCC2)C1=O` (centres unmarked) [Example 2, N-{1,3-Dihydro-1-[3-((pyrrolidinyl)-2-hydroxy)propyl]-2-oxo-5-phenyl-1H-1,4-benzodiazepin-3-yl}-N'-{[4-chlorophenyl]-urea}], the IC50 was greater than 3000 nM at CCK receptor (pancreas) and 300 nM in assay [1] (setting [2]).

Consider `CN(C)CC(O)CN1C(=O)C(NC(=O)Nc2ccc(Cl)cc2)N=C(c2ccccc2)c2ccccc21` (centres unmarked) [Example 3, N-{1,3-Dihydro-1-[3-((dimethylamino)-2-hydroxy)propyl]-2-oxo-5-phenyl-1H-1,4-benzodiazepin-3-yl}-N'-{[4-chlorophenyl]-urea}], for which the figures for the IC50 (on CCK receptor (pancreas); in assay [1] (setting [2])) were greater than 3000 nM and 430 nM, respectively.

`O=C(Nc1ccc(Cl)cc1)NC1N=C(c2ccccc2)c2ccccc2N(CC(Cl)CO)C1=O` (centres unmarked) [Example 4, N-{1,3-Dihydro-1-[3-((hydroxy)-2-chloro)propyl]-2-oxo-5-phenyl-1H-1,4-benzodiazepin-3-yl}-N'-{[4-chlorophenyl]-urea}]: the figures for the IC50 (at CCK receptor (pancreas) (setting [3]); in assay [1] (setting [2])) were greater than 3000 nM and 62 nM, respectively.

`O=C(Nc1ccc(Cl)cc1)NC1N=C(c2ccccc2)c2ccccc2N(CC(O)CO)C1=O` (centres unmarked) [Example 5, N-{1,3-Dihydro-1-[2,3-(dihydroxy)propyl]-2-oxo-5-phenyl-1H-1,4-benzodiazepin-3-yl}-N'-{[4-chlorophenyl]-urea}]: the IC50 at CCK receptor (pancreas) (setting [3]) was greater than 3000 nM; in assay [1], 118 nM.

With `CCCC(=O)Nc1nc2c(ncn2[C@@H]2O[C@@H]3COP(=O)(O)O[C@H]3[C@H]2OC(=O)CCC)c(=O)[nH]1` [dibutyryl cyclic GMP], the “CCK-receptor antagonist potency / agonism” value with CCK receptor was “the most potent”.

Take `CCCN(CCC)C(=O)C(CCC(=O)O)NC(=O)c1ccccc1` (centres unmarked) [proglumide]: the “in vitro gastrin antagonism” value in the assay with gastrin is recorded as “very weak in vitro antagonists”.
